Test results reported in article PMC4165461 (Analytical Chemistry, 2014).
*1 amine or outer side, *2 acyl side, *3 side chain or, on linkers, in order; H or OH if unused. Where a SMILES comes first, the peptide text is derived from it. CO = O=C([*:1])[*:2]

What was measured:
[1] = target: cathepsin B (Homo sapiens, UniProt P07858); assay: Cathepsin B assay by droplet ESI-MS; conditions: for result in the 24-compound pilot screen: 25 μM each; for inhibition at 25 µM: read-out: reduction of reaction yield in the primary screen
[2] = test system: CC(C)[C@H](NC(=O)[C@H](Cc1ccccc1)NC(=O)CNC(=O)[C@H](Cc1ccccc1)NC(=O)CN)C(=O)NCC(=O)NCC(=O)O; assay: purified protein, by the assay type; conditions: other: substrate 0 to 400 μM, 50 nM cathepsin B; 37.0 °C

Compound	inhibition at 25 µM [1] [%]	further results
CC(C)C[C@H](NC(=O)[C@H]1O[C@@H]1C(=O)O)C(=O)NCCCCN=C(N)N (relative stereo) [E-64, L-trans-3-carboxyoxiran-2-carbonyl-L-leucylagmatine]		result in the 24-compound pilot screen [1]: detected as inhibitors
CSc1nc2cc(Cl)c(Oc3cccc(Cl)c3Cl)cc2[nH]1 [Triclabendazole, triclabendazole]	≥ 40	
CC(C)[C@H](NC(=O)[C@H](CCCNC(=N)N)NC(=O)N[C@@H](Cc1ccccc1)C(=O)O)C(=O)N[C@H](C=O)CCCNC(=N)N [antipain, [(S)-1-carboxy-2-phenylethyl]carbamoyl-L-arginyl-L-valyl-argininal] ({Phe-CO}-Arg-Val-Arg-aldehyde)		result in the 24-compound pilot screen [1]: detected as inhibitors
CC(C)C[C@H](NC(=O)[C@@H](NC(=O)N[C@@H](Cc1ccccc1)C(=O)O)[C@@H]1CCN=C(N)N1)C(=O)N[C@H](C=O)Cc1ccccc1 [chymostatin, N-(Nα-carbonyl-[S,S]-α-(2-iminohexahydro-4-pyrimidyl)glycine-X-Phe-al)-Phe, X = Leu, Val, or Ile]		result in the 24-compound pilot screen [1]: detected as inhibitors
CCN(CC)C(=S)SSC(=S)N(CC)CC [disulfiram]	≥ 40	
C=C(CC)C(=O)c1ccc(OCC(=O)O)c(Cl)c1Cl [ethacrynic acid]	≥ 40	
Oc1c(Cl)cc(Cl)c(Cl)c1Cc1c(O)c(Cl)cc(Cl)c1Cl [hexachlorophene]	≥ 40	
CC(=O)N[C@@H](CC(C)C)C(=O)N[C@@H](CC(C)C)C(=O)N[C@H](C=O)CCCNC(=N)N [leupeptin, N-acetyl-L-leucyl-L-leucyl-L-argininal]		result in the 24-compound pilot screen [1]: detected as inhibitors
Oc1cc(Cl)ccc1Oc1ccc(Cl)cc1Cl [triclosan]	≥ 40	
cathepsin B (Homo sapiens)		Km [2]: 270 ± 34 µM

The next lines start with results.

inhibition at 25 µM [1] [%]	Compound	further results
≥ 40	[H]/N=C(\N/C(=N/[H])NCCCCCCNC(=N)NC(=N)Nc1ccc(Cl)cc1)Nc1ccc(Cl)cc1 [Chlorhexidine, chlorhexidine]	
≥ 40	O=c1cc(-c2ccc(O)c(O)c2)oc2cc(O)cc(O)c12 [Luteolin, luteolin]	
≥ 40	O=C1c2c(O)cccc2Cc2cccc(O)c21 [anthralin]	
≥ 40	CC(=O)Oc1cccc2c1C(=O)c1c(OC(C)=O)cc(C(=O)O)cc1C2=O [diacerein]	
≥ 40	O=C(c1ccc(OCCN2CCCCC2)cc1)c1c(-c2ccc(O)cc2)sc2cc(O)ccc12 [raloxifene]	
